Reference: EPA's ToxRefDB 2

Key:
[1] = system: rabbit; conditions: Prenatal developmental toxicity study, new zealand white, Oral, Gavage/Intubation, dose end: 19 GD
[2] = system: dog; conditions: Subchronic oral toxicity in nonrodent, beagle, Feed, dose end: 90 day, group: systemic, systemic / hematology / [other] / [other] + systemic / hematology / anisocytosis / anisocytosis + systemic / hematology / leukocyte (wbc) …
[3] = system: rat; conditions: Prenatal developmental toxicity study, sprague dawley, Oral, Gavage/Intubation, dose end: 15 GD
[4] = system: mouse; conditions: Subchronic oral toxicity in rodents, cd1, Feed, dose end: 3 month, group: systemic, systemic / clinical chemistry / albumin / albumin + systemic / clinical chemistry / bilirubin / total bilirubin + systemic / organ weight / …
[5] = system: rat; conditions: Combined chronic toxicity/carcinogenicity; sprague dawley; Oral; Feed; dose end: 2 year; group: systemic; systemic / clinical chemistry / bilirubin / total bilirubin + systemic / hematology / lymphocyte / lymphocyte + systemic / hematology / …
[6] = system: rat; conditions: Subchronic oral toxicity in rodents, sprague dawley, Feed, dose end: 90 day, group: systemic
[7] = system: mouse; conditions: Carcinogenicity, cd1, Oral, Feed, dose end: 18 month, group: systemic
[8] = system: rat; conditions: Multigenerational reproductive toxicity study, sprague dawley, Oral, Feed, dose end: 2 generation
[9] = system: dog; conditions: Chronic toxicity; beagle; Oral; Feed; dose end: 1 year; group: systemic; systemic / pathology microscopic / kidney / fatty change + systemic / pathology microscopic / kidney / lipofuscin deposits + systemic / …
[10] = system: rat; conditions: Multigenerational reproductive toxicity study, sprague dawley, Oral, Feed, dose end: 2 generation; remark: listed apart in the source
[11] = system: rat; conditions: Subchronic dermal toxicity, sprague dawley, Topical, dose end: 90 day, group: systemic
[12] = system: dog; conditions: Chronic toxicity, beagle, Oral, Gavage/Intubation, dose end: 12 month, group: systemic
[13] = system: rabbit; conditions: Prenatal developmental toxicity study, new zealand white, Oral, Gavage/Intubation, dose end: 18 GD
[14] = system: mouse; conditions: Carcinogenicity; cd1; Oral; Feed; dose end: 78 week; group: systemic; systemic / in life observation / body weight / body weight + systemic / in life observation / body weight / body weight gain
[15] = system: rat; conditions: Combined chronic toxicity/carcinogenicity; sprague dawley; Oral; Feed; dose end: 104 week; group: systemic; systemic / pathology microscopic / lymph node / hemorrhage + systemic / pathology microscopic / lymph node / hemosiderosis + systemic / …
[16] = system: rat; conditions: Subchronic oral toxicity in rodents, sprague dawley, Feed, dose end: 90 day, group: systemic, systemic / in life observation / body weight / body weight + systemic / in life observation / body weight / body weight gain + systemic / in…
[17] = system: rat; conditions: Prenatal developmental toxicity study, sprague dawley, Oral, Gavage/Intubation, dose end: 15 GD; remark: listed apart in the source
[18] = system: rat; conditions: Sub-acute repeat dose toxicity, Oral, Gavage/Intubation, dose end: 28 day, group: systemic
[19] = system: rat; conditions: Sub-acute repeat dose toxicity, Oral, Gavage/Intubation, dose end: 7 day, group: systemic
[20] = system: dog; conditions: Sub-acute repeat dose toxicity, beagle, Oral, Gavage/Intubation, dose end: 28 day, group: systemic
[21] = group: developmental, developmental / developmental malformation / general / runts
[22] = group: developmental, developmental / developmental malformation / general / runts + developmental / developmental malformation / bone / detached + developmental…
[23] = group: maternal, systemic / in life observation / body weight / body weight gain + systemic / in life observation / food consumption / food consumption + …
[24] = group: developmental, developmental / developmental malformation / bone / full supernumerary + developmental / developmental malformation / bone / short …
[25] = group: maternal, systemic / in life observation / body weight / body weight gain
[26] = systemic / in life observation / body weight / body weight + systemic / in life observation / body weight / body weight gain
[27] = systemic / in life observation / body weight / body weight + systemic / in life observation / body weight / body weight gain + systemic / …
[28] = group: offspring, systemic / in life observation / body weight / offspring (pup) weight
[29] = group: parental, systemic / in life observation / body weight / body weight + systemic / in life observation / body weight / body weight gain
[30] = group: reproductive, reproductive / reproductive performance / fertility / fertility
[31] = group: offspring, systemic / in life observation / body weight / offspring (pup) weight + systemic / in life observation / body weight / offspring (pup) …
[32] = group: parental, systemic / in life observation / body weight / body weight + systemic / in life observation / body weight / body weight gain + systemic / in…
[33] = systemic / pathology microscopic / skin / acanthosis
[34] = systemic / clinical chemistry / cholesterol / cholesterol + systemic / in life observation / clinical signs / emesis + systemic / in life …
[35] = group: developmental, systemic / in life observation / body weight / fetal weight
[36] = group: maternal, systemic / in life observation / body weight / body weight gain + systemic / in life observation / clinical signs / abnormal respiratory …
[37] = group: maternal, systemic / in life observation / clinical signs / defecation (diarrhea) + systemic / in life observation / clinical signs / oral discharge
[38] = group: developmental, developmental / developmental malformation / bone / [other] + developmental / developmental malformation / bone / incomplete ossification + …
[39] = group: maternal, systemic / in life observation / clinical signs / abnormal respiratory sounds
[40] = group: maternal, systemic / in life observation / clinical signs / abnormal respiratory sounds + systemic / in life observation / body weight / body weight …
[41] = systemic / clinical chemistry / alanine aminotransferase (alt/sgpt) / alanine aminotransferase (alt/sgpt) + systemic / clinical chemistry / …
[42] = systemic / in life observation / clinical signs / lacrimation or red-colored tears + systemic / in life observation / clinical signs / …
[43] = systemic / clinical chemistry / [other] / [other] + systemic / clinical chemistry / albumin / albumin + systemic / clinical chemistry / …
[44] = systemic / in life observation / clinical signs / salivation
[45] = systemic / in life observation / body weight / body weight + systemic / in life observation / clinical signs / dialated pupils + systemic / …
[46] = systemic / in life observation / clinical signs / dialated pupils + systemic / in life observation / clinical signs / distended abdomens + …

With `COc1nc(C)nc(NC(=O)NS(=O)(=O)c2ccccc2CCC(F)(F)F)n1` [Prosulfuron] the NEL [1, 21] was 100 mg/kg/day, the NOAEL [1, 21] was 100 mg/kg/day and the LEL [1, 22] was 200 mg/kg/day. The LOAEL [1, 22] was 200 mg/kg/day, the LOAEL ([1]; group: maternal, systemic / in life observation / body weight / body weight gain + systemic / in life observation / food consumption / food consumption) was 100 mg/kg/day and the LEL [1, 23] was 100 mg/kg/day. For the same compound, the NEL [1, 23] was 20 mg/kg/day, the NOAEL [1, 23] was 20 mg/kg/day and the LEL [2] was 54 mg/kg/day. The LOAEL [2] was 54 mg/kg/day, the NEL [2] was 6.5 mg/kg/day and the NOAEL [2] was 6.5 mg/kg/day. For the same compound, the LEL [3, 24] was 400 mg/kg/day, the LOAEL [3, 24] was 400 mg/kg/day and the NEL [3, 24] was 200 mg/kg/day. It also gave an NOAEL [3, 24] of 200 mg/kg/day, an LEL [3, 25] of 400 mg/kg/day and an LOAEL [3, 25] of 400 mg/kg/day. The NEL [3, 25] was 200 mg/kg/day, the NOAEL [3, 25] was 200 mg/kg/day and the LEL [4] was 69.3 mg/kg/day. The LOAEL [4] was 69.3 mg/kg/day, the NEL [4] was 2.01 mg/kg/day and the NOAEL [4] was 2.01 mg/kg/day. For the same compound, the LEL [5] was 0.4 mg/kg/day, the LOAEL [5] was 79.9 mg/kg/day and the NEL [5] was less than 0.4 mg/kg/day. For the same compound, the NOAEL [5] was 7.9 mg/kg/day, the LEL [6, 26] was 31 mg/kg/day and the LOAEL [6, 26] was 31 mg/kg/day. The NEL [6, 27] was 3.1 mg/kg/day, the NOAEL [6, 27] was 3.1 mg/kg/day and the LOAEL ([7]; systemic / in life observation / body weight / body weight gain) was 508 mg/kg/day. It also gave an NOAEL ([7]; systemic / in life observation / body weight / body weight gain + systemic / hematology / mean corpuscular hemoglobin concentration (mchc…) of 100 mg/kg/day, an LEL ([7]; systemic / pathology microscopic / liver / hypertrophy) of 81.4 mg/kg/day and an NEL ([7]; systemic / pathology microscopic / liver / hypertrophy + systemic / hematology / hematocrit (hct) / hematocrit (hct) + systemic / in life …) of 1.71 mg/kg/day. For the same compound, the LEL [8, 28] was 136 mg/kg/day, the LOAEL [8, 28] was 136 mg/kg/day and the NEL [8, 28] was 13.3 mg/kg/day. The NOAEL [8, 28] was 13.3 mg/kg/day, the LEL [8, 29] was 136 mg/kg/day and the LOAEL [8, 29] was 136 mg/kg/day. It also gave an NEL [8, 29] of 13.3 mg/kg/day, an NOAEL [8, 29] of 13.3 mg/kg/day and an LEL [8, 30] of 278 mg/kg/day. It also gave an LOAEL [8, 30] greater than 278 mg/kg/day, an NEL [8, 30] of 136 mg/kg/day and an NOAEL [8, 30] of no less than 278 mg/kg/day. The LEL [9] was 18.6 mg/kg/day, the LOAEL [9] was 18.6 mg/kg/day and the NEL [9] was 1.95 mg/kg/day. It also gave an NOAEL [9] of 1.95 mg/kg/day.
Work on `CCCCCCCCCC[N+](C)(C)CCCCCCCCCC.[Cl-]` [Didecyldimethylammonium chloride] yielded an LEL [10, 31] of 101 mg/kg/day, an LOAEL [10, 31] of 101 mg/kg/day and an NEL [10, 31] of 48.2 mg/kg/day. It also gave an NOAEL [10, 31] of 48.2 mg/kg/day, an LEL [10, 32] of 101 mg/kg/day and an LOAEL [10, 32] of 101 mg/kg/day. For the same compound, the NEL [10, 32] was 48.2 mg/kg/day, the NOAEL [10, 32] was 48.2 mg/kg/day and the LEL [11, 33] was 2 mg/kg/day. The NEL [11, 33] was less than 2 mg/kg/day, the LOAEL ([11]; systemic / pathology microscopic / skin / acanthosis + systemic / pathology microscopic / skin / inflammation) was 6 mg/kg/day and the NOAEL ([11]; systemic / pathology microscopic / skin / acanthosis + systemic / pathology microscopic / skin / inflammation + systemic / in life …) was 2 mg/kg/day. It also gave an LOAEL [12, 34] of 20 mg/kg/day, an NEL [12, 34] of 3 mg/kg/day and an NOAEL [12, 34] of 10 mg/kg/day. It also gave an LEL ([12]; systemic / in life observation / clinical signs / emesis + systemic / in life observation / clinical signs / mucoid stools + systemic / in …) of 10 mg/kg/day, an LEL [13, 35] of 10 mg/kg/day and an LOAEL [13, 35] of 10 mg/kg/day. The NEL [13, 35] was 3 mg/kg/day, the NOAEL [13, 35] was 3 mg/kg/day and the LOAEL [13, 36] was 3 mg/kg/day. It also gave an NOAEL [13, 36] of 1 mg/kg/day, an LEL [13, 37] of 1 mg/kg/day and an NEL [13, 37] of less than 1 mg/kg/day. It also gave an LEL [14] of 156 mg/kg/day, an LOAEL [14] of 156 mg/kg/day and an NEL [14] of 76.3 mg/kg/day. For the same compound, the NOAEL [14] was 76.3 mg/kg/day, the LEL [15] was 64 mg/kg/day and the LOAEL [15] was 64 mg/kg/day. The NEL [15] was 32 mg/kg/day, the NOAEL [15] was 32 mg/kg/day and the LEL [16] was 175 mg/kg/day. It also gave an LOAEL [16] of 175 mg/kg/day, an NEL [16] of 60.7 mg/kg/day and an NOAEL [16] of 60.7 mg/kg/day. The LEL [17, 38] was 20 mg/kg/day, the LOAEL [17, 38] was 20 mg/kg/day and the NEL [17, 38] was 10 mg/kg/day. For the same compound, the NOAEL [17, 38] was 10 mg/kg/day, the LEL [17, 39] was 10 mg/kg/day and the LOAEL [17, 39] was 10 mg/kg/day. The NEL [17, 40] was 1 mg/kg/day and the NOAEL [17, 40] was 1 mg/kg/day.
`CSc1ccc(Oc2ccc(S(N)(=O)=O)cc2CN(C)C)cc1C` showed an LOAEL [18, 41] greater than 500 mg/kg/day, an NOAEL [18, 41] of no less than 500 mg/kg/day and an LEL [18, 42] of 5 mg/kg/day. For the same compound, the NEL [18, 42] was less than 5 mg/kg/day, the LOAEL [19, 43] was greater than 1000 mg/kg/day and the NOAEL [19, 43] was no less than 1000 mg/kg/day. It also gave an LEL [19, 44] of 250 mg/kg/day, an NEL [19, 44] of less than 250 mg/kg/day and an LOAEL [20, 45] greater than 40 mg/kg/day. It also gave an NOAEL [20, 45] of no less than 40 mg/kg/day, an LEL [20, 46] of 4 mg/kg/day and an NEL [20, 46] of less than 4 mg/kg/day.
